Results from patent US6942979B1, “Method for screening substances capable of modulating the activity of a TRAAK potassium channel” (Centre National de la Recherche Scientifique-CNRS, priority 1998, dated 2005).
Each block holds one molecule with its values, some of them ahead of it.

Key:
Type in all cases: cell-based
TRAAK channel [1] = biological target: T1, TRAAK channel (Mus musculus, UniProt O88454); experiment: TRAAK currents in transfected COS cells, imposed voltage technique; conditions: concentration of 10 μM
T1 construct: an open reading phase of 1197 nucleotides coding for a polypeptide of 398 residues; expressed in transfected cells; host or cells: COS cells (transient)
T1 sequence (O88454 1-398): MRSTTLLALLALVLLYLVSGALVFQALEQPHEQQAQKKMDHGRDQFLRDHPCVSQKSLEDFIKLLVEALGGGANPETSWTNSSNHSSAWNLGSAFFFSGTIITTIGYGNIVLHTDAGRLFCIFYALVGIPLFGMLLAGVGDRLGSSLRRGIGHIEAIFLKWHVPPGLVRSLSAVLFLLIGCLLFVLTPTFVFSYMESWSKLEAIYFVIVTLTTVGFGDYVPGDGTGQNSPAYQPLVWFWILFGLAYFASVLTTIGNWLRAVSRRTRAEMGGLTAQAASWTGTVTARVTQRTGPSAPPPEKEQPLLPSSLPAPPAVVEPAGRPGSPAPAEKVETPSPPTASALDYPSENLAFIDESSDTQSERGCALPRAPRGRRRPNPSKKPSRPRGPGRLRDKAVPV

TRAAK channel [2] = biological target: T1, TRAAK channel; experiment: TRAAK currents in Xenopus oocytes injected with TRAAK cRNA, imposed voltage technique
Description: In (a): the oocytes were maintained at a potential of −80 mV then the currents were recorded following potential jumps from −150 to +50 mV by increments of 20 mV. The recordings were performed in an external medium containing a K^+ concentration of 2 mM or 74 mM. In (b): current-potential relation was according to the same experimental set-up as in (a). In (c): potential reversal (Erev) of the TRAAK currents were a function of the external K^+ concentration. In (d): currents recorded on COS cells transfected by TRAAK according to the same protocol as in (a). In (e): current-potential relation was according to the same experimental set-up as in (d).
(§1) For the functional study, the coding sequence of TRAAK was inserted in the vector pEXO and a complementary RNA (cRNA) was synthesized from this construction and injected in Xenopus oocytes. For expression in the COS cells, the TRAAK sequence was subcloned in an expression vector under the control of a eukaryote promoter and transfected into the cells. An absent non-inactivating current from the oocytes and the control cells was measured by the imposed voltage technique as represented in FIG. 4. The activation was instantaneous and could not be resolved because it was masked by the capacitive discharge of the current recorded at the beginning of the potential jump. The current-potential relation rectified in the outgoing direction when the external K^+ concentration was equal to 2 mM. Incoming currents were observed when the external K^+ concentration was increased. At all concentrations, the current-potential curves followed the Goldman-Hodgkin-Katz relation. […] The TRAAK channel is selective for potassium. Reversal of the current potential follows the equilibrium potential of K^+ and changing the concentration of K^+ by 10 leads to a change in the potential inversion value conforming to the value predicted by Nernst's equation (48.7±0.7 mV times 10, n=4).

TRAAK channel [3] = biological target: T1, TRAAK channel; experiment: TRAAK currents in transfected COS cells, imposed voltage technique; set-up: increase in the current induced by AA: dose or concentration left out as unconfirmed
Description: as §1, with “The maintenance potential was -80 mV. In FIG. 9b: dose-effect relation ofthe activation” for “For the functional study, the coding sequence”, “by AA is shown. In FIG. 9c: current-potential relations obtained as in FIG. 9a” for “was inserted”, “outside-out configuration are shown. […] In FIG. 9d: a histogram represents the coefficient of augmentation of the currents obtained after application of various fatty acids (10 μM). […] The coefficient of augmentation is indicated in each case. […] The current-potential relations were obtained as in FIG. 9a above” for “vector pEXO”, “after application ofriluzole (100 μM) on the transfected COS cells. […]” for “a complementary RNA (cRNA) was synthesized from this construction and injected in Xenopus oocytes.”

TREK-1 channel [4] = biological target: T2, TREK-1 channel (Mus musculus, UniProt P97438, R381M/T78A); experiment: TREK-1 currents in transfected COS cells, patch recording
T2 construct: expressed in transfected cells; host or cells: COS cells
T2 sequence (P97438 with tags, fused parts or gaps isoform P97438-2 T63A/R366M): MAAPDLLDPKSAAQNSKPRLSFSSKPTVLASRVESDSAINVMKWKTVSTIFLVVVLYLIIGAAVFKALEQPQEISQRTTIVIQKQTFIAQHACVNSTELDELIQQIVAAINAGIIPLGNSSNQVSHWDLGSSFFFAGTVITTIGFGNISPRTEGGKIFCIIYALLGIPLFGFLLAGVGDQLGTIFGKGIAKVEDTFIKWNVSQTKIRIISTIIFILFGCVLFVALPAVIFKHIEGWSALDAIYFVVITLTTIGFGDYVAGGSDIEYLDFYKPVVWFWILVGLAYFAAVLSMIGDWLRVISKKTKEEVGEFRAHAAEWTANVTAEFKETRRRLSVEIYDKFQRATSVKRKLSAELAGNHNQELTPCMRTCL
Description: (§2) In FIG. 8a: the activity of TREK-1 was recorded in the attached cell configuration. The patch was stimulated by a potential ramp lasting 800 msec every 5 seconds. The currents were measured at 80 mV. The applications of arachidonic acid (AA, 10 μM) are indicated by the horizontal bars. During the experiment, the patch was stimulated by tensions of 50 mmHg (indicated by the arrows). At 9 minutes, the patch was excised in the inside-out configuration. In FIG. 8b: current-potential relations corresponding to the experiment illustrated in FIG. 8a is shown. In FIG. 8c: activity of TREK-1 in the attached cell configuration with 10 μM AA in the pipette can be seen. The potential ramp lasted 800 msec and the currents were measured at 80 mV. In FIG. 8d: single-channel current-potential relations at the moment at which the pipette was placed on the membrane or after 20 minutes and 1 minute after the patch was excised in the inside-out configuration. […] The current was measured at 80 mV. In FIG. 8f: AA had no effect on the TREK-1 current measured in the intact cell when it was in the pipette. The current was measured 30 minutes after the patch was broken (control tracing) by a potential ramp of 800 msec. The current was then measured after an application of AA of 1 minute in the external medium (AA tracing).
(§3) FIGS. 10a and b are graphs showing the effect of riluzole on the TREK-1 and TRAAK […] currents. The current-potential relations were obtained as in FIG. 9a above and after application ofriluzole (100 μM) on the transfected COS cells.

TWIK-1 channel = biological target: T3, TWIK-1 channel (Homo sapiens, UniProt O00180); experiment: TWIK-1 currents in transfected COS cells before and after AA; conditions: intact cell configuration
T3 construct: expressed in transfected cells; host or cells: COS cells (transient)
T3 sequence (O00180 1-336): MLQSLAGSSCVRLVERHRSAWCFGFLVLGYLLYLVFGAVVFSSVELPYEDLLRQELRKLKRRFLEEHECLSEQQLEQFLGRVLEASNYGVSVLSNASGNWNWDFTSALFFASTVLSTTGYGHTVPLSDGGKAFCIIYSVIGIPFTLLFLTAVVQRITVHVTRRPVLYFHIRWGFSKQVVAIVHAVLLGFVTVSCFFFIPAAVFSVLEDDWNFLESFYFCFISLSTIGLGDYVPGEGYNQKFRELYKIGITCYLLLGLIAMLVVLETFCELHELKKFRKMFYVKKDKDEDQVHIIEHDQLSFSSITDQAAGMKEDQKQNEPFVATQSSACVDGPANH

TASK channel = biological target: T4, TASK channel (Homo sapiens, UniProt O14649); experiment: TASK currents in transfected COS cells before and after AA; conditions: intact cell configuration
T4 construct: expressed in transfected cells; host or cells: COS cells (transient)

control cells (CD8) = experiment: Application of AA on control cells (CD8)
TREK-1 channel [5] = biological target: T5, TREK-1 channel (Mus musculus, UniProt P97438); experiment: TREK-1 currents in transfected COS cells, patch recording; conditions: AA 10 μM applied in the external medium, transfected COS cells
T5 construct: expressed in transfected cells; host or cells: COS cells
T5 sequence (P97438 with tags, fused parts or gaps isoform P97438-2 T63A/R366M): T2 sequence (P97438 with tags, fused parts or gaps isoform P97438-2 T63A/R366M)
Description: as §2, §3

[6] = riluzole 100 μM, transfected COS cells

T4 sequence (O14649 whole entry): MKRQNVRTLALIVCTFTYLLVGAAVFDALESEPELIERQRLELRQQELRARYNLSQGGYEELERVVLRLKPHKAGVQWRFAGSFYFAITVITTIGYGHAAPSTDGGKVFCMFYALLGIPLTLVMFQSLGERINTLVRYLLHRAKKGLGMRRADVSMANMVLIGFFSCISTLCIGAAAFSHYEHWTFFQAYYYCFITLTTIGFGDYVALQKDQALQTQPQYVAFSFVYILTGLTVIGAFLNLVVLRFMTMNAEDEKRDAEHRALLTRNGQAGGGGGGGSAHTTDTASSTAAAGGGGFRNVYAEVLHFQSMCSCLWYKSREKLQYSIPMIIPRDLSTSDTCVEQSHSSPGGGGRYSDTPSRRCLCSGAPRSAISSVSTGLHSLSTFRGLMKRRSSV

SMILES: CCCCCCCCCCCCCCCCCCCC(=O)O [arachidic, arachidic acid]
- activation of the TRAAK channel by fatty acids and derivatives (TRAAK channel [1]): no effect

SMILES: Nc1ccncc1 [4-aminopyridine]
- sensitivity of TRAAK to potassium channel blocking agents (TRAAK channel [2]; 1 mM): insensitive

SMILES: CCCCCCCC/C=C\CCCCCCCC(=O)O [oleic, oleic acid]
- activation of the TRAAK channel by fatty acids and derivatives (TRAAK channel [1]): activation

SMILES: Nc1nc2ccc(OC(F)(F)F)cc2s1 [Riluzole, riluzole]
- effect of riluzole on the TRAAK channel (TRAAK channel [3]; [6]): opener
- effect of riluzole on the TREK-1 channel (TREK-1 channel [4]; [6]): opener

SMILES: C=C[C@H]1C[N@@]2CC[C@H]1C[C@H]2[C@H](O)c1ccnc2ccc(OC)cc12 [quinine]
- sensitivity of TRAAK to potassium channel blocking agents (TRAAK channel [2]; 100 mM): insensitive

SMILES: CC[N+](CC)(CC)CC [tetraethylammonium]
- sensitivity of TRAAK to potassium channel blocking agents (TRAAK channel [2]; 1 mM): insensitive

Second part, led by results:

- activation of the TRAAK channel by fatty acids and derivatives (TRAAK channel [1]): activation
SMILES: CCCCC/C=C\C/C=C\CCCCCCCC(=O)O [linoleic, linoleic acid]

- activation of the TRAAK channel by fatty acids and derivatives (TRAAK channel [1]): inactive
SMILES: CCCCC/C=C\C/C=C\C/C=C\C/C=C\CCCC(=O)OC [AA-ME]

- activation of the TRAAK channel by fatty acids and derivatives (TRAAK channel [1]): inactive
SMILES: CCC=CCC=CCC=CCC=CCC=CCC=CCCC(=O)OC [DOHA-ME]

- activation of the TRAAK channel by fatty acids and derivatives (TRAAK channel [1]): no effect
SMILES: CCCCCCCCCCCCCCCC(=O)O [palmitic, palmitic acid]

- effect of activation by AA on TWIK-1 (TWIK-1 channel): No effects of the same type
- activation of the TRAAK channel by AA (TRAAK channel [3]; AA 10 μM (FIG. 9a), transfected COS cells, reversible, concentration dependent): activated
- increase in the current induced by AA (TRAAK channel [3]; AA perfusion with mixture of inhibitors of AA metabolism, at +50 mV, n=3): 6.6±0.5 times
- effect of activation by AA on TASK (TASK channel): No effects of the same type
- activation of TREK-1 by AA (TREK-1 channel [5]): activated
- activation of TREK-1 by internal AA (TREK-1 channel [4]; AA in the pipette, intact cell, dialyzed up to 30 minutes): did not activate
SMILES: CCCCC/C=C\C/C=C\C/C=C\C/C=C\CCCC(=O)O [AA, arachidonic acid]
- effect of AA on control cells (control cells (CD8)): no effect

- activation of the TRAAK channel by fatty acids and derivatives (TRAAK channel [1]): inactive
SMILES: CCCCC/C=C\C/C=C\C/C=C\C/C=C\CCCCO [AA-OH]

- activation of the TRAAK channel by fatty acids and derivatives (TRAAK channel [1]): activation
SMILES: CC/C=C\C/C=C\C/C=C\C/C=C\C/C=C\C/C=C\CCC(=O)O [docosohexaenoic, docosohexaenoic acid]

- activation of the TRAAK channel by fatty acids and derivatives (TRAAK channel [1]): no effect
SMILES: CCCCCCCCCCCCCCCCCC(=O)O [stearic, stearic acid]
